According to patent US8741922B2, “Solid forms of N-(4-(7-azabicyclo[2.2,1]heptan-7-yl)-2-trifluoromethyl)phenyl)-4-oxo-5-(trifluoromethyl)-1,4-dihydroquinoline-3-carboxamide” (Vertex Pharmaceuticals Incorporated, priority 2009, dated 2014):

Target: T1, ΔF508-CFTR (Homo sapiens, UniProt P13569, DEL508-508)
T1 construct: expressed in transfected cells
Test: Membrane potential optical assay for ΔF508-CFTR potentiation (FLIPR III, voltage sensing dyes)
Format: cell-based
Settings: assay not explicitly tied to the value, ΔF508-CFTR NIH 3T3 cells
From the text: Assays for Detecting and Measuring ΔF508-CFTR Potentiation Properties of Compounds
Membrane Potential Optical Methods for Assaying ΔF508-CFTR Modulation Properties of Compounds
The assay utilizes fluorescent voltage sensing dyes to measure changes in membrane potential using a fluorescent plate reader (e.g., FLIPR III, Molecular Devices, Inc.) as a readout for increase in functional ΔF508-CFTR in NIH 3T3 cells. The driving force for the response is the creation of a chloride ion gradient in conjunction with channel activation by a single liquid addition step after the cells have previously been treated with compounds and subsequently loaded with a voltage sensing dye.
To identify potentiators of ΔF508-CFTR, a double-addition HTS assay format was developed. This HTS assay utilizes fluorescent voltage sensing dyes to measure changes in membrane potential on the FLIPR III as a measurement for increase in gating (conductance) of ΔF508 CFTR in temperature-corrected ΔF508 CFTR NIH 3T3 cells. The driving force for the response is a Cl^− ion gradient in conjunction with channel activation with forskolin in a single liquid addition step using a fluorescent plate reader such as FLIPR III after the cells have previously been treated with potentiator compounds (or DMSO vehicle control) and subsequently loaded with a redistribution dye. […]

T1 sequence (P13569 with tags, fused parts or gaps DEL508-508): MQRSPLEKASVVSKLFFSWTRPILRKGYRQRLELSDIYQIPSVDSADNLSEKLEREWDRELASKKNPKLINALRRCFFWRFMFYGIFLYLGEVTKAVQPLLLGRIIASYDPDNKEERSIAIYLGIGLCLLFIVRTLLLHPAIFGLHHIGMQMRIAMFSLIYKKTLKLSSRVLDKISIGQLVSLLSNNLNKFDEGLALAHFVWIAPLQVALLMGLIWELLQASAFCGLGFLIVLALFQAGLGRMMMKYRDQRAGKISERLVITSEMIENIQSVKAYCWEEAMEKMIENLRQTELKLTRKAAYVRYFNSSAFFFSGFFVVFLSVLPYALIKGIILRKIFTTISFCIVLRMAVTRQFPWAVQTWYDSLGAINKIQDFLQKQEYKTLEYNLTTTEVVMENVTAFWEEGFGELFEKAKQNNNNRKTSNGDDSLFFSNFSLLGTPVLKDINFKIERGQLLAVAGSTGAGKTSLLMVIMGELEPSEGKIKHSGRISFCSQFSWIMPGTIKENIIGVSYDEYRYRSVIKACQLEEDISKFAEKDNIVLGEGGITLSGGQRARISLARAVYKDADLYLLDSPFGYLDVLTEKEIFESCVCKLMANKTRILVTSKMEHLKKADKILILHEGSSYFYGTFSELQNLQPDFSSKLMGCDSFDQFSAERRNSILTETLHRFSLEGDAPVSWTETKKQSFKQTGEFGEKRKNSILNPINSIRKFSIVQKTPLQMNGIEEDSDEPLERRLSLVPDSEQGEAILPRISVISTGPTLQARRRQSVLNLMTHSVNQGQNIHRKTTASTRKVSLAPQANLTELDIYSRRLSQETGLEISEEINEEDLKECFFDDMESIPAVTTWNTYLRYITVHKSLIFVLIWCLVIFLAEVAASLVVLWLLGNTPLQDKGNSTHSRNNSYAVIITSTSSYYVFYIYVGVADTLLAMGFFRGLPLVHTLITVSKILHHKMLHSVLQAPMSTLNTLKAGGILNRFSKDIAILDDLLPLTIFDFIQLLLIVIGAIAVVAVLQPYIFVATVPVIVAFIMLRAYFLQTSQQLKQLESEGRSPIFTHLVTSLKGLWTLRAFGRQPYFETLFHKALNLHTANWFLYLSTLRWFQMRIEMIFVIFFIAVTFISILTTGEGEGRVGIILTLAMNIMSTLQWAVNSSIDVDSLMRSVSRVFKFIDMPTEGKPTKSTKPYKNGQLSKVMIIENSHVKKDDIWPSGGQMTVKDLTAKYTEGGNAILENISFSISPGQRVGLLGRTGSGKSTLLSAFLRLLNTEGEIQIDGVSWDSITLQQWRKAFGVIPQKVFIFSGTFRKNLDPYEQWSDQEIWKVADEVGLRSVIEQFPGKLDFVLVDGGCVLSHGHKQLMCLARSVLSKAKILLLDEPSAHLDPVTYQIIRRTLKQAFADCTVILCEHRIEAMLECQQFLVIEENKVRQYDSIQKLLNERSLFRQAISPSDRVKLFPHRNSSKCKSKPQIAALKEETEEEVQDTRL

Compound: O=C(Nc1ccc(N2C3CCC2CC3)cc1C(F)(F)F)c1c[nH]c2cccc(C(F)(F)F)c2c1=O [Compound I, Form A, N-(4-(7-azabicyclo[2.2.1]heptan-7-yl)-2-(trifluoromethyl)phenyl)-4-oxo-5-(trifluoromethyl)-1,4-dihydroquinoline-3-carboxamide]
- EC50: < 2000 nM
